Assay results published in BindingDB's records for doi:10.1002/cbic.201200316 (Moffitt Cancer Center, 2012).

The compounds below were run against Cyclin-dependent kinase 2 (Homo sapiens, UniProt P24941) (assay: Inhibition Assay).
Experimental: The inhibitory against activated CDK2-cyclin A2 complex was determined by using the ADP Quest fluorescence assay from (DiscoveRX, Fremont, CA)

Row | Compound | IC50 [µM]
1 | Nc1cc([N+](=O)[O-])ccc1Nc1ccc(O)cc1 [Hit compound, 12] | > 150
2 | O=C1c2ccccc2C(=O)C1c1ccccn1 | 46
3 | O=c1[nH]c(O)ccc1N=Nc1ccc(S(=O)(=O)O)cc1 [Hit compound, 4] | 45
4 | COCc1cc(/N=N/c2cccc(S(N)(=O)=O)c2)c2ccccc2c1N [Hit compound, 5] | 53

Second part, the compound after the results:

Row | IC50 [µM] | Compound
5 | > 150 | Cc1ccc(N=Nc2c(O)ccc3nn[nH]c23)cc1
6 | > 150 | O=c1cc(-c2ccc(O)cc2)oc2c(O)c(O)c(O)c(O)c12 [2-(4-hydroxyphenyl)-5,6,7,8-tetrakis(oxidanyl)chromen-4-one]
7 | > 150 | Cc1ccc(/N=N/c2ccc(N)cc2C)c(S(N)(=O)=O)c1 [Hit compound, 7]
8 | > 150 | Nc1ccc2c(c1Cl)C(=O)c1ccc(N)c(Cl)c1C2=O [2,6-bis(azanyl)-1,5-bis(chloranyl)anthracene-9,10-dione]
9 | > 150 | Oc1ccc(/N=C/c2c(O)ccc3ccccc23)cc1 [Hit compound, 3]
